Where a name gives a salt, the structure may show the parent alone. Active and inactive are the calls of the source.
What was measured:
[1] = HCT116 cell viability decrease, GSK3B pretreatment – CellTiter-Glo, IC50, dose response (AID 1117339); assay type: functional; details: HCT-116
HEK293 [2] = experiment: optical interference in Abeta FP readout, dose response, artefact control for IDE activator project, biochemical, fluorescence polarization (AID 588442); assay type: functional, cell-based; details: Homo sapiens
P388/ADR = experiment: cells; assay type: functional; details: Mus musculus
[3] = DRD fibroblast viability loss – cell-based, non-viral oncogenic, luminescence, dose response (AID 1934); assay type: functional; details: Homo sapiens
[4] = target: UDP-galactopyranose mutase (Mycobacterium tuberculosis, UniProt P9WIQ1); experiment: Inhibitors of Mycobacterium tuberculosis UDP-galactopyranose mutase (UGM) enzyme Measured in Biochemical System Using Plate Reader - 2105-02_Inhibitor_Dose_CherryPick_Activity. [Related pubchem assays (depositor defined):AID504439]
Sequence of UDP-galactopyranose mutase (P9WIQ1 whole entry): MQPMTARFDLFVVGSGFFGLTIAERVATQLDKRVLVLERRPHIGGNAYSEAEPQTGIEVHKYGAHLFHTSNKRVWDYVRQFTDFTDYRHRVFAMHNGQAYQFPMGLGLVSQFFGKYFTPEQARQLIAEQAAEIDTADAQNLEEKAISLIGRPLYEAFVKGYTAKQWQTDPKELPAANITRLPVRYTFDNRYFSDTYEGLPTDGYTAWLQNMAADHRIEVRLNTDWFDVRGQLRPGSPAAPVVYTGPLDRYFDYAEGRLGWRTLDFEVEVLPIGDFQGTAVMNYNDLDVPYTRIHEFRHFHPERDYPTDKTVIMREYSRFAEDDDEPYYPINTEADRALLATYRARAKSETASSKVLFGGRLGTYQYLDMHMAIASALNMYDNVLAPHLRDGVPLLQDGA

[5] = rise of 2N DNA cells, HeLa – IC50, dose response (AID 1117349); assay type: functional, cell-based
Insulin-degrading enzyme [6] = target: T1, Insulin-degrading enzyme (Homo sapiens, UniProt P14735); experiment: cellular IDE activation of Abeta substrate cleavage – fluorescence polarization, HEK cells, dose response (AID 588439); assay type: functional, cell-based
T1 sequence (P14735 whole entry): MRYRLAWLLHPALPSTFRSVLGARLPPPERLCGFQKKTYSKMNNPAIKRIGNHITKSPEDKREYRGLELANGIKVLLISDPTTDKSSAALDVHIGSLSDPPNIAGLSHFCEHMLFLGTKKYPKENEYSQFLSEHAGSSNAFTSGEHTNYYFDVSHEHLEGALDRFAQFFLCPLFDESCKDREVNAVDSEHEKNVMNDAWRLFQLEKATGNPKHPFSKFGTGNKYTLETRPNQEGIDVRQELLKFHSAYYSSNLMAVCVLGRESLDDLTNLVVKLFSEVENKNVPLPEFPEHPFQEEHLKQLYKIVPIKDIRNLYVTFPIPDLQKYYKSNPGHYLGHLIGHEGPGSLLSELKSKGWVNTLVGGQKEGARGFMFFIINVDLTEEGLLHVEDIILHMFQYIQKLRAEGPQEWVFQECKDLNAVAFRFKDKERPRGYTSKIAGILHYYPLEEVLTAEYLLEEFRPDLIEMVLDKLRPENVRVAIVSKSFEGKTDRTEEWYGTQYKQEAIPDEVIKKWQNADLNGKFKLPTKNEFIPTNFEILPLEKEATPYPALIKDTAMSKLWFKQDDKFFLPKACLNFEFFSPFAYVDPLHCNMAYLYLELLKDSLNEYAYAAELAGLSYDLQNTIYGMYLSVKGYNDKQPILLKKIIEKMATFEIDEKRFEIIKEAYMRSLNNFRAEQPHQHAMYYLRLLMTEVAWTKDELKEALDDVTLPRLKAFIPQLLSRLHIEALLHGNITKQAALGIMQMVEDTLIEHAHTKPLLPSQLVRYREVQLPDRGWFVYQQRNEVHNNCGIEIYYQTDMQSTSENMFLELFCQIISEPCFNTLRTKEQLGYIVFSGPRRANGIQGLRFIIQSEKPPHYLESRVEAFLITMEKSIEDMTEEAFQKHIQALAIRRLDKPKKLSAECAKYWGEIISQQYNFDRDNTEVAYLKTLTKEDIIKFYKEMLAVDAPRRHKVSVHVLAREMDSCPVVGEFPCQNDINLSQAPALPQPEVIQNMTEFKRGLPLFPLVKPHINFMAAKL

[7] = Reduced DLD-1 viability, concentration-response, CellTiter-Glo luminescence (AID 1117352); assay type: functional
BJ [8] = experiment: cells; assay type: functional, cell-based; details: Homo sapiens
[9] = rise of 4N DNA cells, HeLa – IC50, dose response (AID 1117351); assay type: functional, cell-based
HEK293 [10] = experiment: membrane integrity loss in HEK cells – cell-based, fluorescence, cytotoxicity control for IDE activator project, dose response (AID 588440); assay type: functional; details: Homo sapiens;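 note: cytotoxicity by LDH release measuring loss of membrane integrity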
Keap1/Nrf2 = Keap1/Nrf2 (Homo sapiens, UniProt Q14145); experiment: disruptors of Keap1 binding to Nrf2 peptide – biochemical, fluorescence polarization, cherry-picked samples, dose response (AID 588683)
Sequence of Keap1/Nrf2 (Q16236 whole entry): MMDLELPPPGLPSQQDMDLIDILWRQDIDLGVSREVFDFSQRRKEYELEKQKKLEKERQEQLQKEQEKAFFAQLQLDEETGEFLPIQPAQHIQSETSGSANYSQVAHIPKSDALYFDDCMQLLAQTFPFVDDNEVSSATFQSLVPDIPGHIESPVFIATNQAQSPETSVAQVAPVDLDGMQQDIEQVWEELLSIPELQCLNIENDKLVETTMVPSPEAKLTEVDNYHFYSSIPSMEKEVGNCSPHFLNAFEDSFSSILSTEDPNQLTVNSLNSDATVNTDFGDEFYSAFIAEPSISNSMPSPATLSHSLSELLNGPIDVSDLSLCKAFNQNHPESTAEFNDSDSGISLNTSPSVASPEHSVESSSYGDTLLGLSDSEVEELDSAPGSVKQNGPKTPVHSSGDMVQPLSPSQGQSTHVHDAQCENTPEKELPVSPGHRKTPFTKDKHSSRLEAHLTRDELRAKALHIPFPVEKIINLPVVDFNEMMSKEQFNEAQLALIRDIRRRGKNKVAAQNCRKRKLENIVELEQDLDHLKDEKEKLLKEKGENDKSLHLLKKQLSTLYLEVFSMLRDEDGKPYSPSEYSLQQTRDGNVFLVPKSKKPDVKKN
Sequence of Keap1/Nrf2 (Q14145 whole entry): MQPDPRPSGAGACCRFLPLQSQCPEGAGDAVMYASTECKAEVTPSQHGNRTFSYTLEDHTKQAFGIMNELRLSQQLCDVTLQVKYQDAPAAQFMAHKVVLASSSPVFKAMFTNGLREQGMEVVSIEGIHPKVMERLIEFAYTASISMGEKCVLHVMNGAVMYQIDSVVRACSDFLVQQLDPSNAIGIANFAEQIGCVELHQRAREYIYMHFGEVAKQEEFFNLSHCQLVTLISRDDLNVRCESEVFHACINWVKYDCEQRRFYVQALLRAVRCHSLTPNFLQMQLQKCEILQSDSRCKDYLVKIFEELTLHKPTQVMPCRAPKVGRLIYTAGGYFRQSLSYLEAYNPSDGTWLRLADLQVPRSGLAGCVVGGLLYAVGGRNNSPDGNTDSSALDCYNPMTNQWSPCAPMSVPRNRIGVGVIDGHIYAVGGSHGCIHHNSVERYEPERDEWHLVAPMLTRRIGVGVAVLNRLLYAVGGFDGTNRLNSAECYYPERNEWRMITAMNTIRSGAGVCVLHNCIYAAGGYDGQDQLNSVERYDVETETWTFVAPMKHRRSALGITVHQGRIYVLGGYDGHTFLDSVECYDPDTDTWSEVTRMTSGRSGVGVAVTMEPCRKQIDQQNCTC

[11] = RKO cell viability reduction, dose response, CellTiter-Glo luminescence (AID 1117322); assay type: functional
BJ [12] = experiment: BJ-TERT-LT-ST fibroblast viability loss – cell-based, RAS-independent, luminescence, dose response (AID 1935); assay type: functional; details: Homo sapiens;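 note: BJ fibroblasts immortalized with TERT plus LT and ST oncogenes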
P388 = experiment: cells; assay type: functional; details: Mus musculus
BJ [13] = experiment: growth inhibition of engineered Ras-driven BJ cells – cell-based, alamar blue fluorescence, cherrypicked samples, dose response (AID 2631); assay type: functional; details: Homo sapiens;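 note: confirmatory dose-response assay in RAS-dependent BJ fibroblasts engineered with TERT, LT and ST, with cytotoxicity read by fluorescence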
[14] = SNU-C1 cell viability reduction, dose response, CellTiter-Glo luminescence (AID 1117323); assay type: functional, cell-based
ORF 73 = ORF 73 (Human herpesvirus 8, UniProt O40947); experiment: KSHV LANA DNA-binding disruption – biochemical, fluorescence polarization, cherry-picked samples, dose response (AID 504725); set-up: species or system Human gammaherpesvirus 8;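 note: fluorescence polarization of a labeled DNA duplex reporting LANA DNA binding; potency is for inhibitors that block LANA binding to the DNA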
Sequence of ORF 73 (O40947 whole entry): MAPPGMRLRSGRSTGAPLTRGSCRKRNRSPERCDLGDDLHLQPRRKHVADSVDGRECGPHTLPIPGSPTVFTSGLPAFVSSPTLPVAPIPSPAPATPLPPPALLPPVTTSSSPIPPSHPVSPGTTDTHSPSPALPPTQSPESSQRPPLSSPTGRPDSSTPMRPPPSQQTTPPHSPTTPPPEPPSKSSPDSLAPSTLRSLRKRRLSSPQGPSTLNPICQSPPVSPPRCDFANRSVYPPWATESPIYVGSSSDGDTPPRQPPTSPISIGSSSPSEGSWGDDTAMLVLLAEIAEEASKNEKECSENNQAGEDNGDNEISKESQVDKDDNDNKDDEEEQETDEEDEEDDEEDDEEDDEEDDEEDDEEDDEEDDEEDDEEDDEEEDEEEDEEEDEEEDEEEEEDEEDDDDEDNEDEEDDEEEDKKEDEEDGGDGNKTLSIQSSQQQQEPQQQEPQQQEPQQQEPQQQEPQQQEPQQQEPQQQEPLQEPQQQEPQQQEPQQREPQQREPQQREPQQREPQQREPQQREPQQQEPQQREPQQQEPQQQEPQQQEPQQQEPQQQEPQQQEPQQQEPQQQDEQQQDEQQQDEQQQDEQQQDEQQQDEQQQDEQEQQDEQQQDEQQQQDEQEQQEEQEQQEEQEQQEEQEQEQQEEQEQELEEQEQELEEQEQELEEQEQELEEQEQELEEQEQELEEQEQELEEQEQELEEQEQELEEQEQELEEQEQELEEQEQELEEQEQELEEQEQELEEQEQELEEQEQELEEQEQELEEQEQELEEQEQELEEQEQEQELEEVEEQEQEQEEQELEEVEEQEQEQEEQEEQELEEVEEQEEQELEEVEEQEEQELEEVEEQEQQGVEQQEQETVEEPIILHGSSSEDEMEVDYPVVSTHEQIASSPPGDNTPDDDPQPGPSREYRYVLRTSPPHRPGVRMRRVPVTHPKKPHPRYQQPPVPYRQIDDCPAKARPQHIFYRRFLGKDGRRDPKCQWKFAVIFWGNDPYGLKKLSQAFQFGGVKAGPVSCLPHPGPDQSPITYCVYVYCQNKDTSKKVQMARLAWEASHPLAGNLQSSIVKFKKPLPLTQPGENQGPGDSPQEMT

[15] = HEK-293T viability loss after treatment – luminescence, T-cell screen hits, cytotoxicity control for TCR NF-kB inhibitor project, dose response (AID 489026); assay type: functional, cell-based;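 note: cells exposed to compound about 14 hours before the viability readout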
[16] = cytotoxicity toward HCT116 cells – cell-based, CellTiter-Glo luminescence, IC50, dose response (AID 1117332); assay type: functional; details: HCT-116
[17] = cytotoxicity toward HT-29 cells – cell-based, CellTiter-Glo luminescence, IC50, dose response (AID 1117330); assay type: functional
BJ [18] = experiment: BJ-TERT fibroblast viability loss – cell-based, RAS-independent, luminescence, dose response (AID 1933); assay type: functional; details: Homo sapiens
Paired box protein Pax-8 = Paired box protein Pax-8 (Homo sapiens, UniProt Q06710); experiment: PAX8 transcriptional activity inhibition in RMG-I – RMG-I cells, luciferase, cherry-pick, dose response (AID 687027); assay type: functional, cell-based;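 note: luciferase reporter driven by Pax8 target thyroperoxidase promoter measured by SteadyGlo luminescence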
Sequence of Paired box protein Pax-8 (Q06710 whole entry): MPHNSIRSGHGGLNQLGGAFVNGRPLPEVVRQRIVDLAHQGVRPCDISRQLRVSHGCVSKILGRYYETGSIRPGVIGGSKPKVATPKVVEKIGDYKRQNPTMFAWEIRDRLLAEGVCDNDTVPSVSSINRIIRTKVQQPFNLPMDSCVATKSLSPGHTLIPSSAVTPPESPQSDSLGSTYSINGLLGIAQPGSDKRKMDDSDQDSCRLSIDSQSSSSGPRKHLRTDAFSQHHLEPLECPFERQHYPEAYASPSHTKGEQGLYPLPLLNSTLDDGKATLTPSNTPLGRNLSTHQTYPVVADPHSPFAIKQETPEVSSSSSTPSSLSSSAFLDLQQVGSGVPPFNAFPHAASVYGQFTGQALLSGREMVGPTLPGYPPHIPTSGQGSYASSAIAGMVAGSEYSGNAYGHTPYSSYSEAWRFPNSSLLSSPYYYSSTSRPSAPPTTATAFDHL

HeLa = experiment: viability loss in HeLa cells – cell-based, 24 h, cherry-picked samples, cytotoxicity control, dose response (AID 504726); assay type: functional; details: Homo sapiens;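 note: potency for cytotoxicity as loss of luminescence signal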
Insulin-degrading enzyme [19] = target: T1, Insulin-degrading enzyme; experiment: recombinant IDE activation, cell-free – biochemical, fluorescence polarization, counter-screen for IDE activator project, dose response (AID 588681)
[20] = CellTiter-Glo luminescence survival assay, SW480 colon tumor line, concentration-response curve, half-maximal inhibitory concentration (AID 1117338); assay type: functional
SN12K1 = experiment: cells; assay type: functional; details: Homo sapiens

With CC[C@@]1(O)C(=O)OCc2c1cc1n(c2=O)Cc2cc3c(CN(C)C)c(O)ccc3nc2-1 [TOPOTECAN HYDROCHLORIDE] the IC50 [1] was 1.44 nM (active), the EC50 (HEK293 [2]) was > 54700 nM (inactive) and the GI50 (P388/ADR) was 136 nM (active). For the same compound, the EC50 [3] was 549 nM (active), the AC50 [4] was 6860 nM (active) and the IC50 [5] was 13.6 nM (active). For the same compound, the EC50 (Insulin-degrading enzyme [6]) was > 54700 nM (inactive), the IC50 [7] was 177 nM (active) and the EC50 (BJ [8]) was 246 nM (active). The IC50 [9] was > 10000 nM (inactive), the IC50 (HEK293 [10]) was > 89200 nM (inactive) and the AC50 (Keap1/Nrf2) was 3700 nM (active). The IC50 [11] was 34.2 nM (active), the EC50 (BJ [12]) was 159 nM (active) and the GI50 (P388) was 29 nM (active). The EC50 (BJ [13]) was 19.8 nM (active), the IC50 [14] was 301 nM (active) and the AC50 (ORF 73) was 2150 nM (active). The IC50 [15] was > 80000 nM (inactive), the IC50 [16] was 34.1 nM (active) and the IC50 [17] was 24.6 nM (active). The EC50 (BJ [18]) was 11300 nM (active), the AC50 (Paired box protein Pax-8) was < 260 nM (active) and the AC50 (HeLa) was 17100 nM (active). For the same compound, the EC50 (Insulin-degrading enzyme [19]) was > 54700 nM (inactive), the IC50 [20] was 233 nM (active) and the GI50 (SN12K1) was 26.7 nM (active).

Source: ChEMBL document CHEMBL1201862, “PubChem BioAssay data set” (2004)
